ChEMBL document CHEMBL1201862, “PubChem BioAssay data set” (2004)
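Protocol summary: plate cells (96-well), add compound at 5 concentrations, incubate 48 h, interpolate endpoints linearly. Here, GI50 denotes the concentration required for 50% inhibition of growth.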 Calls of active or inactive are those of the source. Rule as the data show it: active = GI50 up to about 1.1 µM and inactive = higher.

Key:
Assay in all cases: growth of human tumour cells (NCI), 48 h
[1] = tested on: 786-0
[2] = tested on: DLD-1
[3] = tested on: HCC 2998
[4] = tested on: HCT-116
[5] = tested on: HCT-15
[6] = tested on: HOP-92
[7] = tested on: LOX IMVI
[8] = tested on: NCI-H226
[9] = tested on: OVCAR-3
[10] = tested on: RXF 393
[11] = tested on: SF-268
[12] = tested on: SF-539
[13] = tested on: SK-MEL-28
[14] = tested on: SN12C
[15] = tested on: SNB-75
[16] = tested on: UACC-62
[17] = tested on: UO-31
[18] = tested on: BT-549
[19] = tested on: DU-145
[20] = tested on: MDA-N

| Compound | GI50 [1] | GI50 [2] | GI50 [3] | GI50 [4] | GI50 [5] | GI50 [6] | GI50 [7] | GI50 [8] | GI50 [9] | GI50 [10] | GI50 [11] | GI50 [12] | GI50 [13] | GI50 [14] | GI50 [15] | GI50 [16] | GI50 [17] | GI50 [18] | GI50 [19] | GI50 [20] |
| --- | --- | --- | --- | --- | --- | --- | --- | --- | --- | --- | --- | --- | --- | --- | --- | --- | --- | --- | --- | --- |
| [O-]c1c2c(nn1-c1ccccc1)c1ccccc1c[n+]2Cc1ccccc1 | > 100 µM (inactive) | > 100 µM (inactive) | > 100 µM (inactive) | > 100 µM (inactive) | > 100 µM | > 100 µM (inactive) | > 100 µM (inactive) | > 100 µM (inactive) | > 100 µM (inactive) | 0.13 µM (active) | 47.1 µM (inactive) | > 100 µM (inactive) | > 100 µM (inactive) | > 100 µM (inactive) | 50.4 µM (inactive) | > 100 µM (inactive) | > 100 µM (inactive) | – | – | – |
| C[N+]1(CCNP(=S)(NCC[N+]2(C)Cc3c(ccc4c3OCO4)C3C2c2cc4c(cc2C[C@@H]3O)OCO4)NCC[N+]2(C)Cc3c(ccc4c3OCO4)C3C2c2cc4c(cc2C[C@@H]3O)OCO4)Cc2c(ccc3c2OCO3)C2C1c1cc3c(cc1C[C@H]2O)OCO3 (stereo not given in full) | < 0.00191 µM (active) | < 0.00191 µM (active) | < 0.00191 µM (active) | < 0.00191 µM (active) | < 0.00191 µM | < 0.00191 µM (active) | < 0.00191 µM (active) | 2.42 µM (inactive) | < 0.00191 µM (active) | < 0.00191 µM (active) | < 0.00191 µM (active) | < 0.00191 µM (active) | < 0.00191 µM (active) | < 0.00191 µM (active) | < 0.00191 µM (active) | < 0.00191 µM (active) | < 0.00191 µM (active) | – | – | – |
| COC(=O)C1=C(C(=O)OC)C23CC1C1C(C(=O)OC)=C(C(=O)OC)C12C1C=CC3C2C(=O)OC(=O)C21 (stereo not given) | 94.2 µM (inactive) | 76.9 µM (inactive) | 66.7 µM (inactive) | 37.7 µM (inactive) | 42.1 µM | 25.3 µM (inactive) | – | – | 3.72 µM (inactive) | 38.9 µM (inactive) | 48.3 µM (inactive) | 23.7 µM (inactive) | 65.5 µM (inactive) | 91.4 µM (inactive) | 7.1 µM (inactive) | 31.5 µM (inactive) | 84.9 µM (inactive) | – | – | – |
| CC(N)Cc1cccc(C(F)(F)F)c1 (stereo not given) | > 100 µM (inactive) | > 100 µM (inactive) | > 100 µM (inactive) | > 100 µM (inactive) | > 100 µM | > 100 µM (inactive) | > 100 µM (inactive) | > 100 µM (inactive) | > 100 µM (inactive) | > 100 µM (inactive) | > 100 µM (inactive) | > 100 µM (inactive) | > 100 µM (inactive) | > 100 µM (inactive) | > 100 µM (inactive) | > 100 µM (inactive) | > 100 µM (inactive) | – | – | – |
| CCC(C)(O)c1cn(-c2ccc(S(=O)(=O)O)cc2)nn1 (stereo not given) | > 100 µM (inactive) | > 100 µM (inactive) | > 100 µM (inactive) | > 100 µM (inactive) | > 100 µM | > 100 µM (inactive) | > 100 µM (inactive) | > 100 µM (inactive) | > 100 µM (inactive) | > 100 µM (inactive) | > 100 µM (inactive) | > 100 µM (inactive) | > 100 µM (inactive) | > 100 µM (inactive) | > 100 µM (inactive) | > 100 µM (inactive) | > 100 µM (inactive) | – | – | – |
| Cn1c2ccccc2c2cc(-c3ccccc3)c3c(c21)C(=O)C=CC3=O | 8.15 µM (inactive) | 13.6 µM (inactive) | 34.1 µM (inactive) | 20.2 µM (inactive) | 15.2 µM | 14.5 µM (inactive) | 18.6 µM (inactive) | 15.2 µM (inactive) | 16.4 µM (inactive) | 15.8 µM (inactive) | 28.4 µM (inactive) | 27.3 µM (inactive) | 20.4 µM (inactive) | 21.7 µM (inactive) | 27.6 µM (inactive) | 19.3 µM (inactive) | 19.8 µM (inactive) | 12.4 µM (inactive) | 82.8 µM (inactive) | 19.4 µM (inactive) |
| COC(=O)c1cc2ccccc2c2nc3ccccc3c(Cl)c12 | > 100 µM (inactive) | > 100 µM (inactive) | > 100 µM (inactive) | 87.1 µM (inactive) | > 100 µM | > 100 µM (inactive) | > 100 µM (inactive) | – | > 100 µM (inactive) | > 100 µM (inactive) | > 100 µM (inactive) | 16.6 µM (inactive) | > 100 µM (inactive) | > 100 µM (inactive) | 98.4 µM (inactive) | > 100 µM (inactive) | – | – | – | – |
| CC(O)CCCOC(c1ccccc1)(c1ccccc1)c1ccccc1 (stereo not given) | 16.5 µM (inactive) | 17.2 µM (inactive) | 15.3 µM (inactive) | 13.8 µM (inactive) | 15.4 µM | 12.6 µM (inactive) | 15.2 µM (inactive) | 16.1 µM (inactive) | 14.2 µM (inactive) | 14.7 µM (inactive) | 15.9 µM (inactive) | 17.2 µM (inactive) | 16.4 µM (inactive) | 16.7 µM (inactive) | 12.6 µM (inactive) | 13.9 µM (inactive) | 13.7 µM (inactive) | – | 16.6 µM (inactive) | 16.8 µM (inactive) |
| CC1=CC[C@@H](C(C)(C)O)C[C@@H]1O | > 5000 µM (inactive) | > 5000 µM (inactive) | > 5000 µM (inactive) | > 5000 µM (inactive) | > 5000 µM | > 5000 µM (inactive) | > 5000 µM (inactive) | > 5000 µM (inactive) | > 5000 µM (inactive) | > 5000 µM (inactive) | > 5000 µM (inactive) | > 5000 µM (inactive) | > 5000 µM (inactive) | > 5000 µM (inactive) | > 5000 µM (inactive) | > 5000 µM (inactive) | > 5000 µM (inactive) | – | – | – |
| C=C(C)C(O)CCC1(C)C=Cc2c(c(C)cc3c2[nH]c2ccccc23)O1 (stereo not given) | 4.91 µM (inactive) | 7.28 µM (inactive) | 5.65 µM (inactive) | 13.2 µM (inactive) | 4.26 µM | 7.01 µM (inactive) | 4.12 µM (inactive) | 7.01 µM (inactive) | 7.52 µM (inactive) | 0.245 µM (active) | 9.93 µM (inactive) | 4.27 µM (inactive) | 16.7 µM (inactive) | 12.8 µM (inactive) | 3.3 µM (inactive) | 4.8 µM (inactive) | 6.87 µM (inactive) | – | 12.6 µM (inactive) | 3.58 µM (inactive) |
| Cc1ccc2c(c1)c(=O)c1c(NCCN(C)C)ccc3nnn2c31 | 3.35 µM (inactive) | 2.88 µM (inactive) | 3.4 µM (inactive) | 2.63 µM (inactive) | 4.18 µM | 2.36 µM (inactive) | 1.9 µM (inactive) | 3.02 µM (inactive) | 5.55 µM (inactive) | 2.88 µM (inactive) | 4.24 µM (inactive) | 5.26 µM (inactive) | 5.42 µM (inactive) | 3.45 µM (inactive) | 4.6 µM (inactive) | 6.44 µM (inactive) | 3.56 µM (inactive) | – | – | – |
